What was measured:
Cladosporium cucumerinum [1] = assay: Growth inhibition of Cladosporium cucumerinum after 2 to 3 days by bioautographic assay; format: functional, organism-based
Artemia salina = assay: Toxicity against Artemia salina; format: organism-based; settings: in vivo
Cladosporium cucumerinum [2] = assay: Antifungal activity against Cladosporium cucumerinum at 1.5 to 50 ug/spot after 2 to 3 days by bioautographic assay; format: functional

Row | Compound | Activity (Cladosporium cucumerinum [1]) | LC50 (Artemia salina) | inhibition zone (IZ) (Cladosporium cucumerinum [2])
1 | C=C(C)CCC[C@]1(C)OC(=O)[C@]23CC=C4[C@@H](CC[C@H]5C(C)(C)[C@@H](O[C@@H]6OC[C@@H](O)[C@H](O)[C@H]6O[C@@H]6O[C@H](C)[C@@H](O[C@@H]7O[C@H](CO)[C@@H](O)[C@H](O[C@@H]8O[C@H](CO)[C@@H](O)[C@H](OC)[C@H]8O)[C@H]7O)[C@H](O)[C@H]6O)CC[C@]45C)[C@]2(C)CC(=O)[C@@H]31 [DESULFATED HEMOIEDEMOSIDE A] | Dose-dependent effect | 424.5 ppm | –
2 | C=C(C)CCC[C@]1(C)OC(=O)[C@]23CC=C4[C@@H](CC[C@H]5C(C)(C)[C@@H](O[C@@H]6OC[C@@H](OS(=O)(=O)[O-])[C@H](O)[C@H]6O[C@@H]6O[C@H](C)[C@@H](O[C@@H]7O[C@H](COS(=O)(=O)[O-])[C@@H](O)[C@H](O[C@@H]8O[C@H](CO)[C@@H](O)[C@H](OC)[C@H]8O)[C@H]7O)[C@H](O)[C@H]6O)CC[C@]45C)[C@]2(C)CC(=O)[C@@H]31.[Na+].[Na+] [HEMOIEDEMOSIDE A] | Dose-dependent effect | 18.7 ppm | 8 mm
3 | CO[C@@H]1[C@@H](O)[C@H](O[C@@H]2[C@@H](O)[C@H](O[C@H]3[C@H](O)[C@@H](O)[C@H](O[C@H]4[C@H](O[C@H]5CC[C@]6(C)[C@@H]7C[C@H](O)[C@]89C(=O)O[C@@](C)(CCCC(C)C)[C@@]8(O)CC[C@@]9(C)C7=CC[C@H]6C5(C)C)OC[C@@H](OS(=O)(=O)[O-])[C@@H]4O)O[C@@H]3C)O[C@H](COS(=O)(=O)[O-])[C@H]2O)O[C@H](CO)[C@H]1O.[Na+].[Na+] [PATAGONICOSIDE A] | – | – | 8 mm

Source: ChEMBL document CHEMBL1150590, “Cytotoxic and antifungal triterpene glycosides from the Patagonian sea cucumber Hemoiedema spectabilis” (J Nat Prod, 2002)
